Measured values as given in patent US7598244B2, “[1,2,4]triazolo[1,5,a]pyrimidin-2-ylurea derivative and use thereof” (Nippon Kayaku Kabushiki Kaisha, priority 2003, dated 2009).

Experiments:
[1] = test system: BALB/c mice; assay: Effect on mouse delayed-type hypersensitivity reaction (DTH reaction), swelling of the sole; assay type: in vivo; details: Oral
Experimental: Effect on Mouse Delayed-Type Hypersensitivity Reaction (DTH Reaction)
1.0×10^5 sheep erythrocytes (Nippon Seibutsu Zairyo Center, Co., Ltd.) were administered to each of BALB/c mice (Charles River Japan, Inc.; female; 8-week-old) by intravenous injection for sensitization. From the day of administration of the sheep erythrocytes, a test compound was administered to the mouse. As a control, a 0.5% carboxymethyl cellulose (CMC)-Na solution and a normal saline solution used as solvents were administered to the same type of mouse via oral administration or intraperitoneal administration. Five days after the antigen sensitization, 1.0×10^8 sheep erythrocytes were subcutaneously injected into the sole of the mouse. 24 hours later, the thickness of the sole was measured. The value obtained by subtracting the mean value of the thicknesses of the soles of mice, to which a normal saline solution had been administered instead of the sheep erythrocytes, from the above measurement value, was defined as swelling of the sole generated as a result of the DTH reaction. The inhibition rate of the swelling of the sole caused by the DTH reaction was calculated using the following formula (5). The amount of the test compound necessary for inhibition of 50% (ED50 value) was obtained as the activity of the test compound to inhibit the DTH reaction. It is to be noted that cyclosporin A was used as a positive control.
[formula] • Eexp: Swelling of sole of mouse to which test compound was administered • Cexp: Swelling of sole of mouse to which solvent was administered

[2] = test system: CD1a; assay: Expression of antigen-presenting and costimulatory molecules of human peripheral blood-derived dendritic cells: CD1a; assay type: cell-based; details: Analyte 1 (dendritic cells of one healthy subject), 3 days
Experimental: (§1) Action on Expression of Antigen-Presenting Molecules and Costimulatory Molecules of Human Peripheral Blood-Derived Dendritic Cells
The dendritic cells obtained by the same method as in Test Example 2 were suspended in RPMI 1640 comprising 10% FCS containing 500 U/ml GM-CSF, 50 ng/ml IL-4, and 100 U/ml human recombinant tumor necrosis factor (2.5×10^6 cells/ml). Thereafter, the suspension was inoculated into a 6-well plate at an amount of 2.0 ml/well, and the test compound was then added thereto. The mixture was cultured at 37° C. for 3 days in an incubator containing 5% carbon dioxide. Thereafter, the suspended cells were recovered. The cells were then stained with fluoroisothiocyanate-labeled mouse monoclonal antibodies reacting with MHC class I (Bechman Coulter), CD1a (Immunotech), CD40 (Pharmingen), CD80 (Pharmingen), and CD83 (Immunotech). Thereafter, mean fluorescence intensity and the ratio of positive cells were measured by flow cytometry. The expression level was calculated by the formula “the mean fluorescence intensity x the ratio of positive cells,” and the inhibition rate of the surface antigen expression level of dendritic cells was then obtained by the following formula (8). […]

[3] = test system: CD80; assay: Expression of antigen-presenting and costimulatory molecules of human peripheral blood-derived dendritic cells: CD80; assay type: cell-based
Experimental: as §1
The dendritic cells obtained by the same method as in Test Example 2 were suspended in RPMI 1640 comprising 10% FCS containing 500 U/ml GM-CSF, 50 ng/ml IL-4, and 100 U/ml human recombinant tumor necrosis factor (2.5×10^6 cells/ml). Thereafter, the suspension was inoculated into a 6-well plate at an amount of 2.0 ml/well, and the test compound was then added thereto. The mixture was cultured at 37° C. for 3 days in an incubator containing 5% carbon dioxide. Thereafter, the suspended cells were recovered. The cells were then stained with fluoroisothiocyanate-labeled mouse monoclonal antibodies reacting with MHC class I (Bechman Coulter), CD1a (Immunotech), CD40 (Pharmingen), CD80 (Pharmingen), and CD83 (Immunotech). Thereafter, mean fluorescence intensity and the ratio of positive cells were measured by flow cytometry. The expression level was calculated by the formula “the mean fluorescence intensity x the ratio of positive cells,” and the inhibition rate of the surface antigen expression level of dendritic cells was then obtained by the following formula (8).
[formula] • Eexp: Expression level of surface antigens of dendritic cells cultured in the presence of test compound • Cexp: Expression level of surface antigens of dendritic cells cultured in the absence of test compound

With `CC(C)NC(=O)Nc1nc2nccc(-c3cccs3)n2n1` [Example 029, 1-isopropyl-3-(7-thiophen-2-yl[1,2,4]triazolo[1,5-a]pyrimidin-2-yl)urea] the “Inhibition rate (%) of swelling of the sole” value (“Inhibition rate (%)” for short) ([1]; administration period 7 days, 50 mg/kg/single administration) was 37.0%, the “Inhibition rate (%)” value ([1]; administration period 7 days, 100 mg/kg/single administration) was 49.5% and the “Inhibition rate (%)” value ([1]; administration period 8 days, 50 × 2 (50 mg/kg, twice a day)) was 80.0%. For the same compound, the “Expression inhibition rate by test compound (%), CD1a” value [2] was 55.6%, the “Expression inhibition rate by test compound (%), CD80” value ([3]; Analyte 1, 3 days) was 83.8% and the “Expression inhibition rate by test compound (%), CD80” value ([3]; Analyte 2, 3 days) was 12.1%. For the same compound, the “Expression inhibition rate by test compound (%), CD80” value ([3]; Analyte 3, 3 days) was 26.8%.
